Measurements reported in US20230219986A1, “NOVEL AMINOPYRIMIDINE EGFR INHIBITOR” (QILU PHARMACEUTICAL CO., LTD., priority 2020, published 2023).

Assays:
wild-type EGFR = target: T1, wild-type EGFR (Homo sapiens, UniProt P00533); test: Enzymology experiment in vitro (HTRF/FRET kinase activity), wild-type EGFR; assay type: biochemical; details: HTRF KinEASE-TK, read-out: EGFR (WT) IC50
T1 construct: purchased Signalchem
In short: (§1)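 HTRF KinEASE-TK format: EGFR enzyme preincubated with compound 10 min at room temperature, then peptide substrate plus ATP added for 40 min. Detection with EDTA, XL665-streptavidin and Eu³⁺-labeled antibody for 1 h.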

[1] = target: T2, L858R/T790M/C797S triple mutant EGFR (Homo sapiens, UniProt P00533, C797S/L858R/T790M); test: Enzymology experiment in vitro (HTRF/FRET kinase activity), L858R/T790M/C797S triple mutant EGFR; assay type: biochemical; details: HTRF KinEASE-TK, read-out: EGFR (L858R/T790M/C797S) IC50
T2 construct: purchased Signalchem
In short: as §1

[2] = test system: EGFR wild-type cell line A431; test: Cell proliferation inhibition experiment (CellTiter-Glo), A431; assay type: cell-based; details: Homo sapiens, A-431, 72 h, A431 cells, Cell Titer-Glo, read-out: A431 EGFR WT IC50
In short: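 A431 cells, 800 per well, were cultured 24 h and then exposed to serially diluted compound (0.1% DMSO final) for 72 h at 37° C., 5% CO2.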

[3] = target: Ba/F3 De119/T790M/C797S EGFR triple mutant cell line (Homo sapiens, UniProt P00533, T790M/C797S, cells depend on it, form not given); test: Cell proliferation inhibition experiment (CellTiter-Glo), Ba/F3 De119/T790M/C797S; assay type: cell-based; details: Ba/F3 Del19/T790M/C797S EGFR triple mutant cells, 72 hours, Cell Titer-Glo; read-out: Ba/F3 (Del19/T790M/C797S) IC50
[4] = target: Ba/F3 L858R/T790M/C797S EGFR triple mutant cell line (Homo sapiens, UniProt P00533, T790M/C797S/L858R, cells depend on it); test: Cell proliferation inhibition experiment (CellTiter-Glo), Ba/F3 L858R/T790M/C797S; assay type: cell-based; details: 72 hours, Cell Titer-Glo, read-out: Ba/F3 (L858R/T790M/C797S) IC50
Chain of Ba/F3 L858R/T790M/C797S EGFR triple mutant cell line (P00533 whole entry T790M/C797S/L858R): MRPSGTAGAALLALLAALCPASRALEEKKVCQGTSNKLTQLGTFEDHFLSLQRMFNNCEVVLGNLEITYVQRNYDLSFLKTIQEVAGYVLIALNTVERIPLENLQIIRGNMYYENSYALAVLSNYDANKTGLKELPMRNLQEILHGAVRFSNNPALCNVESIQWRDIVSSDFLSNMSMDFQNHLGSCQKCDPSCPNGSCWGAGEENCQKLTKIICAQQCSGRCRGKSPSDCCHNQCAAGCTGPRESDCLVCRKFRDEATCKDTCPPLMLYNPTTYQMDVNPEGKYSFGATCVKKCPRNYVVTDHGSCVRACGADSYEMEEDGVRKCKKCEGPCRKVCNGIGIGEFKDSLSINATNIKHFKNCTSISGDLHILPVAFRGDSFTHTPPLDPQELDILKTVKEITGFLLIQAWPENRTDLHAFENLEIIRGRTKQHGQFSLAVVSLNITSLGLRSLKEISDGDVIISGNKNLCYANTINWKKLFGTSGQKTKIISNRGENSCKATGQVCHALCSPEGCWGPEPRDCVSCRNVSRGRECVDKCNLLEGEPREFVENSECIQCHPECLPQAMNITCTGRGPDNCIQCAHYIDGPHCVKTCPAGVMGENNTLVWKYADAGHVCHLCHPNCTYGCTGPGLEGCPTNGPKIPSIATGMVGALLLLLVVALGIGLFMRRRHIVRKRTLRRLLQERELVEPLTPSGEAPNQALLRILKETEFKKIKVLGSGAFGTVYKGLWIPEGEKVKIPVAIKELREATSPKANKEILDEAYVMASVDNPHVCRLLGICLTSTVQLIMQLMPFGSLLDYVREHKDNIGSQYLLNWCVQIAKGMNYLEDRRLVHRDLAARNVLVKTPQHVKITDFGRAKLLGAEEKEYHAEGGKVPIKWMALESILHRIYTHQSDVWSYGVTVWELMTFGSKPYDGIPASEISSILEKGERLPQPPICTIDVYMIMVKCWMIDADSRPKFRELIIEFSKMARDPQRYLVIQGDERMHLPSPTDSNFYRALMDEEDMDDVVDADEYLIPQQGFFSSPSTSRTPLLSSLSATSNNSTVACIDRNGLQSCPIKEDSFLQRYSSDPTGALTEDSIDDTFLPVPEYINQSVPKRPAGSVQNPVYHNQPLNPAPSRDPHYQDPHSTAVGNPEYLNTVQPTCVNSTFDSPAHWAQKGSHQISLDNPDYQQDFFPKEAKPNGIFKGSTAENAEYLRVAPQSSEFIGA

T1 sequence (P00533 25-1210): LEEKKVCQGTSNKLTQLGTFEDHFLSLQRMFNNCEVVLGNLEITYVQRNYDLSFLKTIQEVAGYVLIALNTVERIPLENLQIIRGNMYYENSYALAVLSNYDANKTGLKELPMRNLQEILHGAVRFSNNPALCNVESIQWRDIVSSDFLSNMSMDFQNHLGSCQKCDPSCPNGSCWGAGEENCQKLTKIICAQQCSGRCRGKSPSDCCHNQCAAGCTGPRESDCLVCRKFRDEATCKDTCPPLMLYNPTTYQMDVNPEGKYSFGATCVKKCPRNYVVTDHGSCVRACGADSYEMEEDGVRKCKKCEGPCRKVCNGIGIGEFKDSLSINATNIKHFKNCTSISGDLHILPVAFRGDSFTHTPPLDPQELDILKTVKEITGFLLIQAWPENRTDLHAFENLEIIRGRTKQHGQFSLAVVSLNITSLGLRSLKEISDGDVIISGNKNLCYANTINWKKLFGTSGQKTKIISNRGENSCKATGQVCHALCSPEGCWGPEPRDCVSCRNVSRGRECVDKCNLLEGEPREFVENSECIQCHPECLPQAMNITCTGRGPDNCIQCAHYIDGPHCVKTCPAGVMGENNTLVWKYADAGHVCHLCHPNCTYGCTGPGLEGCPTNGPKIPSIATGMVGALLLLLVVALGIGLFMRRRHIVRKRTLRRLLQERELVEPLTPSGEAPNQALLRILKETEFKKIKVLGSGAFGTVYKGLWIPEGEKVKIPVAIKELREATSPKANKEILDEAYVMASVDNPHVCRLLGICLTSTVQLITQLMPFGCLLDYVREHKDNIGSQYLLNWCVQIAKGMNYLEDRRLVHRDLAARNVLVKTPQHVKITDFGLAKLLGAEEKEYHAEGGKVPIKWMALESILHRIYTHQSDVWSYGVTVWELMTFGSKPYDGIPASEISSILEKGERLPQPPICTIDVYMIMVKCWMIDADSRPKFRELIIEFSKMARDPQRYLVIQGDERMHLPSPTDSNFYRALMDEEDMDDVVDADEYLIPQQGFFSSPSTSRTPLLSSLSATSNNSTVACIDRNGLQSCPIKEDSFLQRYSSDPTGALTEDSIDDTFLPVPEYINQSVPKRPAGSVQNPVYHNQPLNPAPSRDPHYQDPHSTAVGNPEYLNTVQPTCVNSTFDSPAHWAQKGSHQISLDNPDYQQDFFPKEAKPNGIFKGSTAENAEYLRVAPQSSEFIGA
T2 sequence (P00533 25-1210 T790M/C797S/L858R): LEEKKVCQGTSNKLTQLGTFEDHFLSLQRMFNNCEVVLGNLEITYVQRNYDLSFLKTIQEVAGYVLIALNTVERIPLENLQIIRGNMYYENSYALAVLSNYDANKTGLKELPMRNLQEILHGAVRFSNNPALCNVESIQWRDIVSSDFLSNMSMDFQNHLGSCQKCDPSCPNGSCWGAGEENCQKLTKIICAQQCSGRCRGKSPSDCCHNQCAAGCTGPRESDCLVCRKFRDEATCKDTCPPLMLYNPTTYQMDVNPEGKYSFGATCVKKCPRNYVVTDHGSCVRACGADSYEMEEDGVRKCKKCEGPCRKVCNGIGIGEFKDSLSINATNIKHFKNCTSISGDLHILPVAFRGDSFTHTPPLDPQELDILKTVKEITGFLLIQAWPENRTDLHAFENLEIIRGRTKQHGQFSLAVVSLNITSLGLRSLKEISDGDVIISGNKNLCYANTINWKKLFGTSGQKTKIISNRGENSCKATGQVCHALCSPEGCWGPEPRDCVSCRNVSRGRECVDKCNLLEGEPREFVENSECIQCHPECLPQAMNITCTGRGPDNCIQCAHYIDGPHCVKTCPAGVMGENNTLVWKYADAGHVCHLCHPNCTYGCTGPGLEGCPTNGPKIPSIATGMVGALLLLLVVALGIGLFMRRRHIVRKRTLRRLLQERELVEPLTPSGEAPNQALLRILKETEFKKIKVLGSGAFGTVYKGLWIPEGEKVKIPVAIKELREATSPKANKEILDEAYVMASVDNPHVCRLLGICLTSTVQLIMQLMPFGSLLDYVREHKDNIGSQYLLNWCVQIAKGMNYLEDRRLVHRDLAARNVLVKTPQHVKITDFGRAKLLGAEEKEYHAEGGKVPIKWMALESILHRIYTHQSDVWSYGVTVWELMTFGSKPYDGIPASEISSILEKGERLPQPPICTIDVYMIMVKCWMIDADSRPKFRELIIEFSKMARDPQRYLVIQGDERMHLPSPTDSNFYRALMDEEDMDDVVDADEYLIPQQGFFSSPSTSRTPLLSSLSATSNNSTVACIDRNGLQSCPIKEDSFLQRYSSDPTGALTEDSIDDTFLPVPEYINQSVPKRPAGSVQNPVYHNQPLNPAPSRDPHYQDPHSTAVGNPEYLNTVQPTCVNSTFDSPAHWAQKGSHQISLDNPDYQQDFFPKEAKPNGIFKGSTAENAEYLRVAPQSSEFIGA
Chain of Ba/F3 De119/T790M/C797S EGFR triple mutant cell line (P00533 with tags, fused parts or gaps DEL746-750/T790M/C797S, form open): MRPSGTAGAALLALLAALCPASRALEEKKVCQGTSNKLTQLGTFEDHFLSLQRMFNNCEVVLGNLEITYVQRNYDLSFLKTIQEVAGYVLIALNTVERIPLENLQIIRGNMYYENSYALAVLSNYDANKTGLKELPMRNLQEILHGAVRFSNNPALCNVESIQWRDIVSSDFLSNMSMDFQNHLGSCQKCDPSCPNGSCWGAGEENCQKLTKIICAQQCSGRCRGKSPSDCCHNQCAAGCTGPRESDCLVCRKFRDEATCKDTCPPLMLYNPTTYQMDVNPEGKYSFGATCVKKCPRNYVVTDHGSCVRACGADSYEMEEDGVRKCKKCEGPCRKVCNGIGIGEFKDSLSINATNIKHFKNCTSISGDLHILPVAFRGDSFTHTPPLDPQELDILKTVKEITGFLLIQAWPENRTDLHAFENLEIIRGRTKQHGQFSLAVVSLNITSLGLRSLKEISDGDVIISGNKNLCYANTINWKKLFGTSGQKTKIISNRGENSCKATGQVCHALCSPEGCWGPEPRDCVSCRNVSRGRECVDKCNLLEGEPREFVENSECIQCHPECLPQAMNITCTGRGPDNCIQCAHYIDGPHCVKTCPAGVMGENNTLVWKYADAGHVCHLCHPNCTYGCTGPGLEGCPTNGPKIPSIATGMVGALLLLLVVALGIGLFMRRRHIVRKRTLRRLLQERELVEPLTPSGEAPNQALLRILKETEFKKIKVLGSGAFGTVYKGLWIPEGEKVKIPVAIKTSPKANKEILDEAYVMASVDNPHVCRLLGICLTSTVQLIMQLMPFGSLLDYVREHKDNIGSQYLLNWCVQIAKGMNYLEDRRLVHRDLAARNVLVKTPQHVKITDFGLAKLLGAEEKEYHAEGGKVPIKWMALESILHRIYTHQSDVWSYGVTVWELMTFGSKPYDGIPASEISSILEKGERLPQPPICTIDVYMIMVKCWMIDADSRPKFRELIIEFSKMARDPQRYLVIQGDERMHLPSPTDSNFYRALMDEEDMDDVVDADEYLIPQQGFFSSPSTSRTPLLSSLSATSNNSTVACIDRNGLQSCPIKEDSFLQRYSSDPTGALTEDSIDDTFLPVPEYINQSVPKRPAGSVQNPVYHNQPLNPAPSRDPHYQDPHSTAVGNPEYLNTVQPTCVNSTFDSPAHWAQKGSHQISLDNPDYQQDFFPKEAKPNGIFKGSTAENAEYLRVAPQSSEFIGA

Compound | IC50 (wild-type EGFR) | IC50 [1] | IC50 [2] | GI50 [3] | GI50 [4]
COc1cc(N2CCC(OC(C)C)CC2)c(-c2cnn(C)c2)cc1Nc1ncc(Br)c(Nc2ccc3nccnc3c2P(C)(C)=O)n1 [compound 151] | 38.2 nM | 2.2 nM | 318 nM | 1.84 nM | 7.47 nM
COC[C@H]1CN(c2cc(OC)c(Nc3ncc(Br)c(Nc4ccc5nccnc5c4P(C)(C)=O)n3)cc2-c2cnn(C)c2)CCO1 [compound 152] | 4.24 nM | 0.35 nM | 133 nM | 1.06 nM | 4.59 nM
COc1cc(N2CCN(C)C(CF)C2)c(-c2cnn(C)c2)cc1Nc1ncc(Br)c(Nc2ccc3nccnc3c2P(C)(C)=O)n1 (stereo not shown) [compound 153] | 3.02 nM | 0.22 nM | 61.9 nM | 1.03 nM | 2.89 nM
COc1cc(NC(C)C(F)(F)F)c(-c2cnn(C)c2)cc1Nc1ncc(Br)c(Nc2ccc3nccnc3c2P(C)(C)=O)n1 (stereo not shown) [compound 154] | 36.9 nM | 0.86 nM | 469 nM | 5.26 nM | 15.4 nM
COc1cc(N2CCC(OCC3CC3)CC2)c(-c2cnn(C)c2)cc1Nc1ncc(Br)c(Nc2ccc3nccnc3c2P(C)(C)=O)n1 [compound 156] | 33.5 nM | 3.81 nM | 372 nM | 1.05 nM | 7.29 nM
COc1cc(N2CCN(CC3CC3)CC2)c(-c2cnn(C)c2)cc1Nc1ncc(Br)c(Nc2ccc3nccnc3c2P(C)(C)=O)n1 [compound 157] | 3.6 nM | 0.33 nM | 49.4 nM | 1.28 nM | 7.05 nM
COc1cc(N2CCC(N3CCN(C)CC3)CC2)c(-c2cnn(C)c2)cc1Nc1ncc(Br)c(Nc2cc3c(cc2N(C)S(C)(=O)=O)CC3)n1 [compound 158] | 2.48 nM | 0.81 nM | 166 nM | 3.28 nM | 6.76 nM
COc1cc(N2CCC(N3CC(F)C3)CC2)c(-c2cnn(C)c2)cc1Nc1ncc(Br)c(Nc2ccc3nccnc3c2P(C)(C)=O)n1 [compound 159] | 1.54 nM | 0.7 nM | 114 nM | 0.93 nM | 4.11 nM
COc1cc(N2CCOCC2)c(-c2cnn(C)c2)cc1Nc1ncc(Br)c(Nc2ccc3ncccc3c2P(C)(C)=O)n1 [compound 160] | 2.32 nM | 0.26 nM | 208 nM | 1.56 nM | 9.04 nM
COc1cc(N2CCN3CCOCC3C2)c(-c2cnn(C)c2)cc1Nc1ncc(Br)c(Nc2ccc3nccnc3c2P(C)(C)=O)n1 (stereo not shown) [compound 161] | 2.71 nM | 0.39 nM | 154 nM | 2.36 nM | 6.39 nM
COCC1CCCN(c2cc(OC)c(Nc3ncc(Br)c(Nc4ccc5nccnc5c4P(C)(C)=O)n3)cc2-c2cnn(C)c2)C1 (stereo not shown) [compound 162] | 20.6 nM | 2.28 nM | 518 nM | 6.2 nM | 18 nM
COc1cc(N2CCC(N3CCO[C@H](C)C3)CC2)c(-c2cnn(C)c2)cc1Nc1ncc(Br)c(Nc2ccc3nccnc3c2P(C)(C)=O)n1 [compound 163] | 1.89 nM | 0.28 nM | 71.8 nM | 0.62 nM | 1.97 nM
COc1cc(N2CCN(C(C)C)C(CF)C2)c(-c2cnn(C)c2)cc1Nc1ncc(Br)c(Nc2ccc3nccnc3c2P(C)(C)=O)n1 (stereo not shown) [compound 164] | 5.3 nM | 0.73 nM | 195 nM | 3.22 nM | 8.26 nM
COc1cc(N2CCC(N3CCO[C@@H](C)C3)CC2)c(-c2cnn(C)c2)cc1Nc1ncc(Br)c(Nc2ccc3nccnc3c2P(C)(C)=O)n1 [compound 165] | 1.36 nM | 0.69 nM | 70.2 nM | 0.8 nM | 2.62 nM
COc1cc(N2CCN3CCCC[C@H]3C2)c(-c2cnn(C)c2)cc1Nc1ncc(Br)c(Nc2ccc3nccnc3c2P(C)(C)=O)n1 [compound 166] | 3.81 nM | 0.48 nM | 92.1 nM | 1.58 nM | 5.05 nM
COc1cc(N2CCC3(CCN(CC4CC4)CC3)CC2)c(-c2cnn(C)c2)cc1Nc1ncc(Br)c(Nc2ccc3nccnc3c2P(C)(C)=O)n1 [compound 167] | 1.95 nM | 0.79 nM | 47.4 nM | 2.97 nM | 4.34 nM
COc1cc(N2CCC3CCN(C)C3C2)c(-c2cnn(C)c2)cc1Nc1ncc(Br)c(Nc2ccc3nccnc3c2P(C)(C)=O)n1 (stereo not shown) [compound 168] | 2.57 nM | 0.35 nM | 67.4 nM | 0.71 nM | 4.2 nM
COc1cc(N2CCO[C@H](C)C2)c(-c2cnn(C)c2)cc1Nc1ncc(Br)c(Nc2ccc3nccnc3c2P(C)(C)=O)n1 [compound 169] | 4.39 nM | 0.73 nM | 175 nM | 2.36 nM | 4.24 nM
COc1cc(N2CCO[C@@H](C)C2)c(-c2cnn(C)c2)cc1Nc1ncc(Br)c(Nc2ccc3nccnc3c2P(C)(C)=O)n1 [compound 170] | 4.94 nM | 0.45 nM | 280 nM | 1.8 nM | 8.14 nM
COc1cc(N2CCOCC2)c(-c2cnn(C)c2)cc1Nc1ncc(Br)c(Nc2ccc3nccnc3c2N(C)S(C)(=O)=O)n1 [compound 171, N-(6-((5-bromo-2-((2-methoxy-5-(1-methyl-1H-pyrazol-4-yl)-4-morpholinophenyl)amino)pyrimidin-4-yl)amino)quinoxalin-5-yl)-N-methylmethanesulfonamide] | 4.59 nM | 0.29 nM | 623 nM | 2.13 nM | 7.23 nM
COc1cc(N2CCC(N3CC4(CN(C)C4)C3)CC2)c(-c2cnn(C)c2)cc1Nc1ncc(Br)c(Nc2ccc3nccnc3c2P(C)(C)=O)n1 [compound 172] | 0.69 nM | 0.14 nM | 329 nM | 102 nM | 328 nM
COc1cc(N2CCC(N(C)C(C)C(F)(F)F)CC2)c(-c2cnn(C)c2)cc1Nc1ncc(Br)c(Nc2ccc3nccnc3c2P(C)(C)=O)n1 (stereo not shown) [compound 173] | 50.7 nM | 6 nM | 738 nM | 11.2 nM | 24.5 nM
COc1cc(N2CCN3CCCC[C@@H]3C2)c(-c2cnn(C)c2)cc1Nc1ncc(Br)c(Nc2ccc3nccnc3c2P(C)(C)=O)n1 [compound 175] | 3.1 nM | 0.33 nM | 41.3 nM | 1.7 nM | 5.38 nM
COc1cc(N2CCN3CCC[C@@H]3C2)c(-c2cnn(C)c2)cc1Nc1ncc(Br)c(Nc2ccc3nccnc3c2P(C)(C)=O)n1 [compound 176] | 3.26 nM | 0.34 nM | 61.9 nM | 2.97 nM | 5.96 nM
COc1cc(N2CCN(S(=O)(=O)C3CC3)CC2)c(-c2cnn(C)c2)cc1Nc1ncc(Br)c(Nc2ccc3nccnc3c2P(C)(C)=O)n1 [compound 178] | 7.68 nM | 1.29 nM | 168 nM | 2.86 nM | 13 nM
COc1cc(N2CCC(N3CCC(OC)CC3)CC2)c(-c2cnn(C)c2)cc1Nc1ncc(Br)c(Nc2ccc3nccnc3c2P(C)(C)=O)n1 [compound 179] | 1.48 nM | 0.4 nM | 54.3 nM | 1.37 nM | 6.84 nM
